Assays:
[1] = tested on: AAD-12 (v1) pDAB4101 corn events (4101(0)003.R.003.AF and 4101(0)005.R001.AF); assay: Field tolerance of corn: visual injury and brace root injury, AAD-12 events; assay type: in vivo, Zea mays
Protocol: Seeds were planted with cone planter on 40-inch row spacing at Wayside and 30 inch spacing at Fowler. […] Herbicide treatments were 2,4-D (dimethylamine salt) at 1120, 2240 and 4480 g ae/ha, triclopyr at 840 g ae/ha, fluroxypyr at 280 g ae/ha and an untreated control. The AAD-12 (v1) events contained the AHAS gene as a selectable marker. The F2 corn events were segregating so the AAD-12 (v1) plants were treated with imazethapyr at 70 g ae/ha to remove the null plants. Herbicide treatments were applied when corn reached the V6 stage using compressed air backpack sprayer delivering 187 L/ha carrier volume at 130-200 kpa pressure. […]

[2] = tested on: Roundup Ready (RR) control corn hybrid (2P782); assay: Field tolerance of corn: visual injury and brace root injury, control hybrid; assay type: in vivo, Zea mays; conditions: for % Visual Injury 14DAT: 2P782 control
Protocol: Seeds were planted with cone planter on 40-inch row spacing at Wayside and 30 inch spacing at Fowler. […] Herbicide treatments were 2,4-D (dimethylamine salt) at 1120, 2240 and 4480 g ae/ha, triclopyr at 840 g ae/ha, fluroxypyr at 280 g ae/ha and an untreated control. The AAD-12 (v1) events contained the AHAS gene as a selectable marker. The F2 corn events were segregating so the AAD-12 (v1) plants were treated with imazethapyr at 70 g ae/ha to remove the null plants. Herbicide treatments were applied when corn reached the V6 stage using compressed air backpack sprayer delivering 187 L/ha carrier volume at 130-200 kpa pressure. Visual injury ratings were taken at 7, 14 and 21 days after treatment.

[3] = tested on: AAD-12 (v1) T1 tobacco plants; assay: Cross tolerance of T1 tobacco to phenoxy and pyridyloxy auxin herbicides; assay type: in vivo, Nicotiana tabacum; conditions: 4× field rate (2240 g ae/ha) for 2,4-D or below
From the text: Two to four T0 individuals surviving high rates of 2,4-D and fluroxypyr were saved from each event and allowed to self fertilize in the greenhouse to give rise to T1 seed. The T1 seed was stratified, and sown into selection trays much like that of Arabidopsis (Example 7.4), followed by selective removal of untransformed nulls in this segregating population with 560 g ai/ha glufosinate (PAT gene selection). Survivors were transferred to individual 3-inch pots in the greenhouse. These lines provided high levels of resistance to 2,4-D in the T0 generation. Improved consistency of response is anticipated in T1 plants not having come directly from tissue culture. These plants were compared against wildtype KY160 tobacco. All plants were sprayed with a track sprayer set at 187 L/ha. The plants were sprayed from a range of 140-2240 g ac/ha 2,4-D dimethylamine salt (DMA), 70-1120 g ace/ha triclopyr or 35-560 g ae/ha fluroxypyr. All applications were formulated in water. Each treatment was replicated 2-4 times. Plants were evaluated at 3 and 14 days after treatment. Plants were assigned injury rating with respect to stunting, chlorosis, and necrosis. The T1 generation is segregating, so some variable response is expected due to difference in zygosity.

[4] = tested on: wild-type tobacco line (KY160); assay: Field tolerance of tobacco, wild-type line; assay type: in vivo, Nicotiana tabacum; conditions: for Average % Injury across locations at 14 DAT: Wild type
Protocol: Field level tolerance trials were conducted on three AAD-12 (v1) lines (events pDAS1580-[1]-018.001, pDAS1580-[1]-004.001 and pDAS1580-[1]-020.016) and one wild-type line (KY160) at field stations in Indiana and Mississippi. Tobacco transplants were grown in the greenhouse by planting T1 seed in 72 well transplant flats (Hummert International) containing Metro 360 media according to growing conditions indicated above. The null plants were selectively removed by Liberty selection as previously described. The transplant plants were transported to the field stations and planted at either 14 or 24 inches apart using industrial vegetable planters. Drip irrigation at the Mississippi site and overhead irrigation at the Indiana site were used to keep plants growing vigorously.
The experimental design was a split plot design with 4 replications. The main plot was herbicide treatment and the sub-plot was tobacco line. The herbicide treatments were 2,4-D (dimethylamine salt) at 280, 560, 1120, 2240 and 4480 g ac/ha, triclopyr at 840 g ae/ha, fluroxypyr at 280 g ac/ha and an untreated control. Plots were one row by 25-30 ft. Herbicide treatments were applied 3-4 weeks after transplanting using compressed air backpack sprayer delivering 187 L/ha carrier volume at 130-200 kpa pressure. Visual rating of injury, growth inhibition, and epinasty were taken at 7, 14 and 21 days after treatment.

[5] = tested on: AAD-12 (v1) (pDAS1580) T2 tobacco plants; assay: Auxinic herbicide cross tolerance of stacked tobacco, AAD-12 T2; assay type: in vivo, Nicotiana tabacum
Protocol: (§1) Homozygous AAD-12 (v1) (pDAS1580) and AAD-1 (v3) (pDAB721) plants (see PCT/US2005/014737 for the latter) were both reciprocally crossed and F1 seed was collected. The F1 seed from two reciprocal crosses of each gene were stratified and treated 4 reps of each cross were treated under the same spray regimen as used for the other testing with one of the following treatments: 70, 140, 280 g ac/ha fluroxypyr (selective for the AAD-12 (v1) gene); 280, 560, 1120 g ae/ha R-dichloroprop (selective for the AAD-1 (v3) gene); or 560, 1120, 2240 g ae/ha 2,4-D DMA (to confirm 2,4-D tolerance). Homozygous T2 plants of each gene were also planted for use as controls. Plants were graded at 3 and 14 DAT.

[6] = tested on: AAD-12 x AAD-1 F1 cross tobacco; assay: Auxinic herbicide cross tolerance of stacked tobacco, F1 cross; assay type: in vivo, Nicotiana tabacum; conditions: AAD-12 (v1) x AAD (v3) F1
Protocol: as §1

wildtype tobacco = assay: Auxinic herbicide cross tolerance of stacked tobacco, wildtype; assay type: in vivo, Nicotiana tabacum; conditions: KY160 wildtype control
Protocol: as §1

**Q.** With `O=C(O)COc1ccc(Cl)cc1Cl` [2,4-D, 2,4-dichlorophenoxyacetic acid] as the compound, how does the visual injury ([1]; 2,4-D at the 1, 2 and 4× rates, V6 stage, 14 DAT) read?
**A.** 0%

**Q.** What about the brace root injury ([1]; 4480 g ae/ha of 2,4-D) of the same compound?
**A.** no brace root injury

**Q.** And the “% Visual Injury 14DAT” value ([1]; AAD-12 4101(0)003.R.003.AF, 1120 g ae/ha)?
**A.** 0%

**Q.** And the “% Visual Injury 14DAT” value ([1]; AAD-12 4101(0)003.R.003.AF, 2240 g ae/ha)?
**A.** 0%

**Q.** And the “% Visual Injury 14DAT” value ([1]; AAD-12 4101(0)003.R.003.AF, 4480 g ae/ha)?
**A.** 0%

**Q.** What about the “% Visual Injury 14DAT” value ([1]; AAD-12 4101(0)005.001.AF, 1120 g ae/ha) of the same compound?
**A.** 0%

**Q.** And the “% Visual Injury 14DAT” value ([1]; AAD-12 4101(0)005.001.AF, 2240 g ae/ha)?
**A.** 1%

**Q.** What about the “% Visual Injury 14DAT” value ([1]; AAD-12 4101(0)005.001.AF, 4480 g ae/ha) of the same compound?
**A.** 1%

**Q.** And the “Brace Root Injury Rating (0-10 scale) 28DAT” value (shortened to “Brace Root Injury Rating”) ([1]; AAD-12 event 4101(0)003.R.003.AF, 1120 g ae/ha)?
**A.** 0

**Q.** And the “Brace Root Injury Rating” value ([1]; AAD-12 event 4101(0)003.R.003.AF, 2240 g ae/ha)?
**A.** 0

**Q.** And the “Brace Root Injury Rating” value ([1]; AAD-12 event 4101(0)003.R.003.AF, 4480 g ae/ha)?
**A.** 0

**Q.** And the “Brace Root Injury Rating” value ([1]; AAD-12 event 4101(0)005.001.AF, 1120 g ae/ha)?
**A.** 0

**Q.** And the “Brace Root Injury Rating” value ([1]; AAD-12 event 4101(0)005.001.AF, 2240 g ae/ha)?
**A.** 0

**Q.** What about the “Brace Root Injury Rating” value ([1]; AAD-12 event 4101(0)005.001.AF, 4480 g ae/ha) of the same compound?
**A.** 0

**Q.** And the visual injury ([2]; 2,4-D at 4480 g ae/ha, V6 stage, 14 DAT)?
**A.** 44%

**Q.** And the “% Visual Injury 14DAT” value ([2]; 1120 g ae/ha)?
**A.** 9%

**Q.** What about the “% Visual Injury 14DAT” value ([2]; 2240 g ae/ha) of the same compound?
**A.** 20%

**Q.** And the “% Visual Injury 14DAT” value ([2]; 4480 g ae/ha)?
**A.** 34%

**Q.** What about the brace root injury ([2]; 4480 g ae/ha of 2,4-D) of the same compound?
**A.** severe brace root fusing and malformation

**Q.** And the “Brace Root Injury Rating” value ([2]; Wild-type NK603, 1120 g ae/ha)?
**A.** 3

**Q.** And the “Brace Root Injury Rating” value ([2]; Wild-type NK603, 2240 g ae/ha)?
**A.** 5

**Q.** And the “Brace Root Injury Rating” value ([2]; Wild-type NK603, 4480 g ae/ha)?
**A.** 6

**Q.** And the injury [3]?
**A.** No injury

**Q.** What about the injury ([4]; 2,4-D at 560 g ae/ha (1× field application rate), 14 DAT) of the same compound?
**A.** 63%

**Q.** What about the “Average % Injury across locations at 14 DAT” value ([4]; 280 GM AE/HA) of the same compound?
**A.** 48%

**Q.** And the “Average % Injury across locations at 14 DAT” value ([4]; 560 GM AE/HA)?
**A.** 63%

**Q.** And the “Average % Injury across locations at 14 DAT” value ([4]; 1120 GM AE/HA)?
**A.** 78%

**Q.** And the “Average % Injury across locations at 14 DAT” value ([4]; 2240 GM AE/HA)?
**A.** 87%

**Q.** And the “Average % Injury across locations at 14 DAT” value ([4]; 4480 GM AE/HA)?
**A.** 92%

**Q.** And the “Average % injury 14 DAT” value ([5]; 560 g ae/ha)?
**A.** 0%

**Q.** What about the “Average % injury 14 DAT” value ([5]; 1120 g ae/ha) of the same compound?
**A.** 0%

**Q.** What about the “Average % injury 14 DAT” value ([5]; 2240 g ae/ha) of the same compound?
**A.** 0%

**Q.** What about the “Average % injury 14 DAT” value ([6]; 560 g ae/ha) of the same compound?
**A.** 0%

**Q.** What about the “Average % injury 14 DAT” value ([6]; 1120 g ae/ha) of the same compound?
**A.** 0%

**Q.** What about the “Average % injury 14 DAT” value ([6]; 2240 g ae/ha) of the same compound?
**A.** 0%

**Q.** And the “Average % injury 14 DAT” value (wildtype tobacco; 560 g ae/ha)?
**A.** 63%

**Q.** What about the “Average % injury 14 DAT” value (wildtype tobacco; 1120 g ae/ha) of the same compound?
**A.** 80%

**Q.** And the “Average % injury 14 DAT” value (wildtype tobacco; 2240 g ae/ha)?
**A.** 90%
